Source: ChEMBL document CHEMBL1629589, “Activity of the oral neuraminidase inhibitor A-322278 against the oseltamivir-resistant H274Y (A/H1N1) influenza virus mutant in mice” (2009)

Experiments:
Assay type in all cases: functional
Influenza A virus [1] = assay: Antiviral activity against recombinant Influenza A virus (A/WSN/1933(H1N1)) H274Y mutant infected in BALB/c mouse assessed as reduction in body weight at 1 mg/kg, po administered 4 hrs before infection for 5 days measured on day 5 (reference value: 22.2 %); parameters: scale not given: the % may be the effect or the level left
Influenza A virus [2] = assay: Antiviral activity against recombinant Influenza A virus (A/WSN/1933(H1N1)) H274Y mutant infected in BALB/c mouse assessed as reduction in body weight at 1 mg/kg, po administered 48 hrs postinfection for 5 days measured on day 5 (reference value: 22.2 %); parameters: scale not given: the % may be the effect or the level left
Influenza A virus [3] = assay: Antiviral activity against recombinant Influenza A virus (A/WSN/1933(H1N1)) H274Y mutant infected in BALB/c mouse assessed as reduction in body weight at 10 mg/kg, po administered 48 hrs postinfection for 5 days measured on day 5 (reference value: 22.2 %); parameters: scale not given: the % may be the effect or the level left
Influenza A virus [4] = assay: Antiviral activity against recombinant Influenza A virus (A/WSN/1933(H1N1)) H274Y mutant infected in BALB/c mouse assessed as mortality rate at 1 mg/kg, po administered 4 hrs before infection for 5 days measured on day 5 (reference value: 100 %)
Influenza A virus [5] = assay: Antiviral activity against recombinant Influenza A virus (A/WSN/1933(H1N1)) H274Y mutant infected in BALB/c mouse assessed as mortality rate at 1 mg/kg, po administered 48 hrs postinfection for 5 days measured on day 5 (reference value: 100 %)
Influenza A virus [6] = assay: Antiviral activity against recombinant Influenza A virus (A/WSN/1933(H1N1)) H274Y mutant infected in BALB/c mouse assessed as mortality rate at 10 mg/kg, po administered 48 hrs postinfection for 5 days measured on day 5 (reference value: 100 %)
Influenza A virus [7] = assay: Antiviral activity against recombinant Influenza A virus (A/WSN/1933(H1N1)) H274Y mutant infected in BALB/c mouse assessed as time to death at 10 mg/kg, po administered 48 hrs postinfection for 5 days (reference value: 5.1 days)
Influenza A virus [8] = assay: Antiviral activity against recombinant Influenza A virus (A/WSN/1933(H1N1)) H274Y mutant infected in BALB/c mouse assessed as time to death at 1 mg/kg, po administered 4 hrs before infection on day 5 (reference value: 5.1 days)
Influenza A virus [9] = assay: Antiviral activity against recombinant Influenza A virus (A/WSN/1933(H1N1)) H274Y mutant infected in BALB/c mouse assessed as lung viral titer at 1 mg/kg, po administered 4 hrs before infection for 5 days measured on day 4 (reference value: 1 x 10^6 +/- 0.3 x 10^6 PFU)
Influenza A virus [10] = assay: Antiviral activity against recombinant Influenza A virus (A/WSN/1933(H1N1)) H274Y mutant infected in BALB/c mouse assessed as lung viral titer at 1 mg/kg, po administered 48 hrs postinfection for 5 days measured on day 4 (reference value: 1 x 10^6 +/- 0.3 x 10^6 PFU)
Influenza A virus [11] = assay: Antiviral activity against recombinant Influenza A virus (A/WSN/1933(H1N1)) H274Y mutant infected in BALB/c mouse assessed as lung viral titer at 10 mg/kg, po administered 48 hrs postinfection for 5 days measured on day 4 (reference value: 1 x 10^6 +/- 0.3 x 10^6 PFU)
Influenza A virus [12] = assay: Antiviral activity against recombinant Influenza A virus (A/WSN/1933(H1N1)) H274Y mutant infected in BALB/c mouse assessed as lung viral titer at 10 mg/kg, po administered 4 hrs before infection for 5 days measured on day 4 (reference value: 1 x 10^6 +/- 0.3 x 10^6 PFU)
Influenza A virus [13] = assay: Antiviral activity against recombinant Influenza A virus (A/WSN/1933(H1N1)) H274Y mutant infected in BALB/c mouse assessed as mortality rate at 10 mg/kg, po administered 4 hrs before infection for 5 days measured on day 5 (reference value: 100 %)
Influenza A virus [14] = assay: Antiviral activity against recombinant Influenza A virus (A/WSN/1933(H1N1)) H274Y mutant infected in BALB/c mouse assessed as reduction in body weight at 10 mg/kg, po administered 4 hrs before infection for 5 days measured on day 5 (reference value: 22.2 %); parameters: scale not given: the % may be the effect or the level left
Influenza A virus [15] = assay: Antiviral activity against recombinant Influenza A virus (A/WSN/1933(H1N1)) H274Y mutant infected in BALB/c mouse assessed as time to death at 1 mg/kg, po administered 48 hrs postinfection for 5 days (reference value: 5.1 days)

| Structure (SMILES) | Activity (Influenza A virus [1]) [%] | Activity (Influenza A virus [2]) [%] | Activity (Influenza A virus [3]) [%] | Activity (Influenza A virus [4]) [%] | Activity (Influenza A virus [5]) [%] | Activity (Influenza A virus [6]) [%] | Time (Influenza A virus [7]) [days] | Time (Influenza A virus [8]) [days] | PFU (Influenza A virus [9]) | PFU (Influenza A virus [10]) | PFU (Influenza A virus [11]) | PFU (Influenza A virus [12]) | Activity (Influenza A virus [13]) [%] | Activity (Influenza A virus [14]) [%] | Time (Influenza A virus [15]) [days] |
| --- | --- | --- | --- | --- | --- | --- | --- | --- | --- | --- | --- | --- | --- | --- | --- |
| C/C=C\[C@@H]1C[C@H](C(=O)OC(C)C)N[C@H]1[C@@H](NC(C)=O)[C@](C)(CCC)OC | 10.8 | 19 | 15.6 | 0 | 75 | 25 | 5.4 | 5 | 69000 | 83000 | 130000 | 35000 | 0 | 5 | – |
| CCOC(=O)C1=C[C@@H](OC(CC)CC)[C@H](NC(C)=O)[C@@H](N)C1 [OSELTAMIVIR] | 23.7 | 20.1 | 21.5 | 100 | 100 | 75 | 5.2 | 5.1 | 190000 | 230000 | 13000 | – | – | – | 5 |
